Each block holds one compound with its values, some of them ahead of it.
Tested on: SYO-1 complex spheroid growth, percent test/control
Test: Anticancer human tumor SYO-1 cell line growth inhibition [Asc];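 further: compound exposure lasted 7 days after spheroids grew 3 days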;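 on viability, T/C: 100% = DMSO vehicle control viability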
Conditions: for IC50: curve of first compound; for viability, T/C: stronger effect = lower value
Procedure, shortened: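 Concentration series start at each agent's clinical Cmax, or at 10 microM when none is established, and drop in half-log steps; agents are applied alone or together to complex spheroids built with HUVEC and hMSC.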

[1] = second compound 0.00949 µM, first compound 0.0316 µM
[2] = second compound 0.00949 µM, first compound 0.1 µM
[3] = second compound 0.00949 µM, first compound 0.316 µM
[4] = second compound 0.00949 µM, first compound 1 µM
[5] = second compound 0.03 µM, first compound 0.0316 µM
[6] = second compound 0.03 µM, first compound 0.1 µM
[7] = second compound 0.03 µM, first compound 0.316 µM
[8] = second compound 0.03 µM, first compound 1 µM
[9] = second compound 0.0949 µM, first compound 0.0316 µM
[10] = second compound 0.0949 µM, first compound 0.1 µM
[11] = second compound 0.0949 µM, first compound 0.316 µM
[12] = second compound 0.0949 µM, first compound 1 µM
[13] = second compound 0.3 µM, first compound 0.0316 µM
[14] = second compound 0.3 µM, first compound 0.1 µM
[15] = second compound 0.3 µM, first compound 0.316 µM
[16] = second compound 0.3 µM, first compound 1 µM
[17] = second compound 0.949 µM, first compound 0.0316 µM
[18] = second compound 0.949 µM, first compound 0.1 µM
[19] = second compound 0.949 µM, first compound 0.316 µM
[20] = second compound 0.949 µM, first compound 1 µM
[21] = second compound 3 µM, first compound 0.0316 µM
[22] = second compound 3 µM, first compound 0.1 µM
[23] = second compound 3 µM, first compound 0.316 µM
[24] = second compound 3 µM, first compound 1 µM

- IC50 (second compound 0.00949 µM): > 1000 nM
- IC50 (second compound 0.03 µM): > 1000 nM
- IC50 (second compound 0.0949 µM): 823 nM
- IC50 (second compound 0.3 µM): < 3.16 nM
- IC50 (second compound 0.949 µM): < 3.16 nM
- IC50 (second compound 3 µM): < 3.16 nM
Compound: O=C(c1ccc(F)c(F)c1Nc1ccc(I)cc1F)N1CC(O)([C@@H]2CCCCN2)C1 + CCN1C(C(=O)NC23CCC(C(=O)O)(CC2)CC3)C(c2cccc(Cl)c2F)C2(C(=O)Nc3cc(Cl)ccc32)C12CCCCC2
- viability, T/C (second compound 0.00949 µM, first compound 0.00316 µM): 115%
- viability, T/C (second compound 0.00949 µM, first compound 0.01 µM): 103%
- viability, T/C [1]: 99.9%
- viability, T/C [2]: 111%
- viability, T/C [3]: 107%
- viability, T/C [4]: 119%
- viability, T/C (second compound 0.03 µM, first compound 0.00316 µM): 96.5%
- viability, T/C (second compound 0.03 µM, first compound 0.01 µM): 99.5%
- viability, T/C [5]: 102%
- viability, T/C [6]: 116%
- viability, T/C [7]: 116%
- viability, T/C [8]: 103%
- viability, T/C (second compound 0.0949 µM, first compound 0.00316 µM): 83.5%
- viability, T/C (second compound 0.0949 µM, first compound 0.01 µM): 93.1%
- viability, T/C [9]: 94.5%
- viability, T/C [10]: 95%
- viability, T/C [11]: 93.5%
- viability, T/C [12]: 41.4%
- viability, T/C (second compound 0.3 µM, first compound 0.00316 µM): 30.4%
- viability, T/C (second compound 0.3 µM, first compound 0.01 µM): 23.9%
- viability, T/C [13]: 24.8%
- viability, T/C [14]: 21.6%
- viability, T/C [15]: 10.2%
- viability, T/C [16]: 0.94%
- viability, T/C (second compound 0.949 µM, first compound 0.00316 µM): 5.46%
- viability, T/C (second compound 0.949 µM, first compound 0.01 µM): 5.3%
- viability, T/C [17]: 3.35%
- viability, T/C [18]: 1.43%
- viability, T/C [19]: 0.7%
- viability, T/C [20]: 0.15%
- viability, T/C (second compound 3 µM, first compound 0.00316 µM): 1.44%
- viability, T/C (second compound 3 µM, first compound 0.01 µM): 2.44%
- viability, T/C [21]: 1.3%
- viability, T/C [22]: 0.81%
- viability, T/C [23]: 0.22%
- viability, T/C [24]: 0.42%

- IC50 (second compound 0.0316 µM): > 1000 nM
- IC50 (second compound 0.1 µM): > 1000 nM
- IC50 (second compound 0.316 µM): > 1000 nM
- IC50 (second compound 1 µM): > 1000 nM
- IC50 (second compound 3.16 µM): > 1000 nM
- IC50 (second compound 10 µM): > 1000 nM
Compound: O=C(c1ccc(F)c(F)c1Nc1ccc(I)cc1F)N1CC(O)([C@@H]2CCCCN2)C1 + Cc1c(S(C)(=O)=O)c(-c2cc(F)cc(N3CCN(c4ccc(NS(=O)(=O)c5ccc(NC(CCN6CCC(C(=O)OCCCP(=O)(O)O)CC6)CSc6ccccc6)c(S(=O)(=O)C(F)(F)F)c5)cc4)CC3)c2)c(-c2ccc(Cl)cc2)n1C(C)C
- viability, T/C (second compound 0.0316 µM, first compound 0.00316 µM): 98.2%
- viability, T/C (second compound 0.0316 µM, first compound 0.01 µM): 102%
- viability, T/C (second compound 0.0316 µM, first compound 0.0316 µM): 106%
- viability, T/C (second compound 0.0316 µM, first compound 0.1 µM): 99.6%
- viability, T/C (second compound 0.0316 µM, first compound 0.316 µM): 110%
- viability, T/C (second compound 0.0316 µM, first compound 1 µM): 113%
- viability, T/C (second compound 0.1 µM, first compound 0.00316 µM): 95.3%
- viability, T/C (second compound 0.1 µM, first compound 0.01 µM): 101%
- viability, T/C (second compound 0.1 µM, first compound 0.0316 µM): 97.1%
- viability, T/C (second compound 0.1 µM, first compound 0.1 µM): 102%
- viability, T/C (second compound 0.1 µM, first compound 0.316 µM): 103%
- viability, T/C (second compound 0.1 µM, first compound 1 µM): 99.8%
- viability, T/C (second compound 0.316 µM, first compound 0.00316 µM): 95.7%
- viability, T/C (second compound 0.316 µM, first compound 0.01 µM): 93.6%
- viability, T/C (second compound 0.316 µM, first compound 0.0316 µM): 94.2%
- viability, T/C (second compound 0.316 µM, first compound 0.1 µM): 106%
- viability, T/C (second compound 0.316 µM, first compound 0.316 µM): 99%
- viability, T/C (second compound 0.316 µM, first compound 1 µM): 104%
- viability, T/C (second compound 1 µM, first compound 0.00316 µM): 91.6%
- viability, T/C (second compound 1 µM, first compound 0.01 µM): 89.5%
- viability, T/C (second compound 1 µM, first compound 0.0316 µM): 100%
- viability, T/C (second compound 1 µM, first compound 0.1 µM): 98.9%
- viability, T/C (second compound 1 µM, first compound 0.316 µM): 102%
- viability, T/C (second compound 1 µM, first compound 1 µM): 97.1%
- viability, T/C (second compound 3.16 µM, first compound 0.00316 µM): 91.9%
- viability, T/C (second compound 3.16 µM, first compound 0.01 µM): 92.1%
- viability, T/C (second compound 3.16 µM, first compound 0.0316 µM): 87.2%
- viability, T/C (second compound 3.16 µM, first compound 0.1 µM): 99.8%
- viability, T/C (second compound 3.16 µM, first compound 0.316 µM): 101%
- viability, T/C (second compound 3.16 µM, first compound 1 µM): 93.4%
- viability, T/C (second compound 10 µM, first compound 0.00316 µM): 85.8%
- viability, T/C (second compound 10 µM, first compound 0.01 µM): 81.3%
- viability, T/C (second compound 10 µM, first compound 0.0316 µM): 92.2%
- viability, T/C (second compound 10 µM, first compound 0.1 µM): 85.6%
- viability, T/C (second compound 10 µM, first compound 0.316 µM): 71.8%
- viability, T/C (second compound 10 µM, first compound 1 µM): 67.6%

- IC50 (second compound 0.00949 µM): > 10000 nM
- IC50 (second compound 0.03 µM): > 10000 nM
- IC50 (second compound 0.0949 µM): > 10000 nM
- IC50 (second compound 0.3 µM): < 31.6 nM
- IC50 (second compound 0.949 µM): < 31.6 nM
- IC50 (second compound 3 µM): < 31.6 nM
Compound: C#Cc1c(F)ccc2cc(O)cc(-c3ncc4c(N5CC6CCC(C5)N6)nc(OCC56CCCN5CC(F)C6)nc4c3F)c12 (stereo unspecified) + CCN1C(C(=O)NC23CCC(C(=O)O)(CC2)CC3)C(c2cccc(Cl)c2F)C2(C(=O)Nc3cc(Cl)ccc32)C12CCCCC2
- viability, T/C [1]: 113%
- viability, T/C [2]: 95.3%
- viability, T/C [3]: 101%
- viability, T/C [4]: 98.1%
- viability, T/C (second compound 0.00949 µM, first compound 3.16 µM): 113%
- viability, T/C (second compound 0.00949 µM, first compound 10 µM): 112%
- viability, T/C [5]: 99%
- viability, T/C [6]: 90.1%
- viability, T/C [7]: 97.2%
- viability, T/C [8]: 99.3%
- viability, T/C (second compound 0.03 µM, first compound 3.16 µM): 105%
- viability, T/C (second compound 0.03 µM, first compound 10 µM): 104%
- viability, T/C [9]: 84.8%
- viability, T/C [10]: 81.2%
- viability, T/C [11]: 88.3%
- viability, T/C [12]: 85.8%
- viability, T/C (second compound 0.0949 µM, first compound 3.16 µM): 86.8%
- viability, T/C (second compound 0.0949 µM, first compound 10 µM): 79.7%
- viability, T/C [13]: 26.7%
- viability, T/C [14]: 24.9%
- viability, T/C [15]: 21.6%
- viability, T/C [16]: 20.5%
- viability, T/C (second compound 0.3 µM, first compound 3.16 µM): 21.6%
- viability, T/C (second compound 0.3 µM, first compound 10 µM): 13.5%
- viability, T/C [17]: 2.32%
- viability, T/C [18]: 3.19%
- viability, T/C [19]: 3.03%
- viability, T/C [20]: 3.66%
- viability, T/C (second compound 0.949 µM, first compound 3.16 µM): 2.43%
- viability, T/C (second compound 0.949 µM, first compound 10 µM): 0.85%
- viability, T/C [21]: 1.29%
- viability, T/C [22]: 1.17%
- viability, T/C [23]: 1.63%
- viability, T/C [24]: 1.09%
- viability, T/C (second compound 3 µM, first compound 3.16 µM): 0.91%
- viability, T/C (second compound 3 µM, first compound 10 µM): 0.35%

Reference: PubChem BioAssay AID1963432 (Molecular Pharmacology Branch, DTP, NCI, 2024)
